Measurements: ChEMBL document CHEMBL1201862, “PubChem BioAssay data set” (2004)
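Step 1: Grow cells in 96-well plates. Step 2: Expose to compound for 48 hours at 5 concentrations. Step 3: Interpolate endpoints linearly; if unreached, use highest concentration. GI50: concentration for 50% inhibition of growth.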 Active and inactive are the calls of the source. Cut-off read from the data, not from the text of the source: active = GI50 up to about 1.1 µM and inactive = higher.

How the values were obtained:
Experiment in all cases: NCI tumour cell line growth inhibition, 48 h
A498 = test system: A498
A549 = test system: A549
CCRF-CEM = test system: CCRF-CEM
EKVX = test system: EKVX
HCT-116 = test system: HCT-116
HOP-62 = test system: HOP-62
K562 = test system: K562
KM12 = test system: KM12
LOX IMVI = test system: LOX IMVI
M14 = test system: M14
OVCAR-3 = test system: OVCAR-3
OVCAR-8 = test system: OVCAR-8
SF-268 = test system: SF-268
SF-295 = test system: SF-295
SF-539 = test system: SF-539
SK-MEL-2 = test system: SK-MEL-2
UACC-257 = test system: UACC-257

## CC1=C(C(=O)CC(=O)C(=O)Nc2ccccc2C(F)(F)F)Sc2ccccc2N1
A498
  GI50: > 100 µM (inactive)
A549
  GI50: 51.1 µM (inactive)
CCRF-CEM
  GI50: 49.7 µM (inactive)
EKVX
  GI50: 64.7 µM (inactive)
HCT-116
  GI50: 34.8 µM (inactive)
HOP-62
  GI50: 33.9 µM (inactive)
K562
  GI50: 49.1 µM (inactive)
KM12
  GI50: 39.1 µM (inactive)
LOX IMVI
  GI50: 59.3 µM (inactive)
M14
  GI50: 52.4 µM (inactive)
OVCAR-3
  GI50: 25.4 µM (inactive)
OVCAR-8
  GI50: 50 µM (inactive)
SF-268
  GI50: 15.7 µM (inactive)
SF-295
  GI50: 47.4 µM (inactive)
SF-539
  GI50: 31.2 µM (inactive)
SK-MEL-2
  GI50: > 100 µM (inactive)
UACC-257
  GI50: 42.2 µM (inactive)

## COc1cc([C@@H]2c3cc4c(cc3[C@@H](NCc3ccccc3F)C3COC(=O)[C@@H]32)OCO4)cc(OC)c1O (stereo partly drawn)
A498
  GI50: 5 µM (inactive)
A549
  GI50: 0.933 µM (active)
CCRF-CEM
  GI50: 1.49 µM (inactive)
EKVX
  GI50: 10.7 µM (inactive)
HCT-116
  GI50: 5.27 µM (inactive)
HOP-62
  GI50: 1.93 µM (inactive)
K562
  GI50: 1.47 µM (inactive)
KM12
  GI50: 3.99 µM (inactive)
LOX IMVI
  GI50: 3.07 µM (inactive)
M14
  GI50: 3.01 µM (inactive)
OVCAR-3
  GI50: 15.6 µM (inactive)
OVCAR-8
  GI50: 6.03 µM (inactive)
SF-268
  GI50: 4.69 µM (inactive)
SF-295
  GI50: 1.43 µM (inactive)
SF-539
  GI50: 1.47 µM (inactive)
SK-MEL-2
  GI50: 23.4 µM (inactive)
UACC-257
  GI50: 3.1 µM (inactive)

## NCCN1C(=O)C2C3c4ccccc4C(c4ccccc43)C2C1=O (stereo not drawn)
A498
  GI50: > 100 µM (inactive)
A549
  GI50: > 100 µM (inactive)
CCRF-CEM
  GI50: > 100 µM (inactive)
EKVX
  GI50: > 100 µM (inactive)
HCT-116
  GI50: > 100 µM (inactive)
HOP-62
  GI50: > 100 µM (inactive)
K562
  GI50: > 100 µM (inactive)
KM12
  GI50: > 100 µM (inactive)
M14
  GI50: > 100 µM (inactive)
OVCAR-3
  GI50: > 100 µM (inactive)
OVCAR-8
  GI50: > 100 µM (inactive)
SF-268
  GI50: > 100 µM (inactive)
SF-295
  GI50: > 100 µM (inactive)
SF-539
  GI50: > 100 µM (inactive)
SK-MEL-2
  GI50: > 100 µM (inactive)
UACC-257
  GI50: > 100 µM (inactive)

## Nc1ccccc1C(=O)/C=C/c1ccccc1O
A498
  GI50: > 100 µM (inactive)
A549
  GI50: 45.5 µM (inactive)
CCRF-CEM
  GI50: 33.9 µM (inactive)
EKVX
  GI50: > 100 µM (inactive)
HCT-116
  GI50: 38.2 µM (inactive)
HOP-62
  GI50: > 100 µM (inactive)
K562
  GI50: 29.8 µM (inactive)
KM12
  GI50: 31 µM (inactive)
LOX IMVI
  GI50: 43.8 µM (inactive)
M14
  GI50: 32.3 µM (inactive)
OVCAR-3
  GI50: 31.4 µM (inactive)
OVCAR-8
  GI50: 50.8 µM (inactive)
SF-268
  GI50: 56.5 µM (inactive)
SF-295
  GI50: > 100 µM (inactive)
SF-539
  GI50: 78.7 µM (inactive)
SK-MEL-2
  GI50: 28.3 µM (inactive)
UACC-257
  GI50: 15.1 µM (inactive)

## c1cc2nnsc2s1
A498
  GI50: > 100 µM (inactive)
CCRF-CEM
  GI50: > 100 µM (inactive)
EKVX
  GI50: > 100 µM (inactive)
HOP-62
  GI50: > 100 µM (inactive)
K562
  GI50: > 100 µM (inactive)
KM12
  GI50: > 100 µM (inactive)
LOX IMVI
  GI50: 60 µM (inactive)
M14
  GI50: > 100 µM (inactive)
OVCAR-8
  GI50: > 100 µM (inactive)
SF-268
  GI50: > 100 µM (inactive)
SF-295
  GI50: > 100 µM (inactive)
SF-539
  GI50: > 100 µM (inactive)
SK-MEL-2
  GI50: > 100 µM (inactive)
UACC-257
  GI50: > 100 µM (inactive)

## N#Cc1cc([N+](=O)[O-])ccc1NC(=O)C(=O)Nc1n[nH]c(N)n1
A498
  GI50: > 100 µM (inactive)
A549
  GI50: > 100 µM (inactive)
CCRF-CEM
  GI50: > 100 µM (inactive)
EKVX
  GI50: > 100 µM (inactive)
HCT-116
  GI50: > 100 µM (inactive)
HOP-62
  GI50: > 100 µM (inactive)
K562
  GI50: > 100 µM (inactive)
KM12
  GI50: > 100 µM (inactive)
LOX IMVI
  GI50: > 100 µM (inactive)
M14
  GI50: > 100 µM (inactive)
OVCAR-3
  GI50: > 100 µM (inactive)
OVCAR-8
  GI50: > 100 µM (inactive)
SF-268
  GI50: > 100 µM (inactive)
SF-539
  GI50: > 100 µM (inactive)
SK-MEL-2
  GI50: > 100 µM (inactive)
UACC-257
  GI50: > 100 µM (inactive)

## CC(=O)OC1c2ccccc2CCCCCCC12OCCO2 (stereo not drawn)
A498
  GI50: > 100 µM (inactive)
A549
  GI50: > 100 µM (inactive)
CCRF-CEM
  GI50: > 100 µM (inactive)
HCT-116
  GI50: > 100 µM (inactive)
HOP-62
  GI50: > 100 µM (inactive)
K562
  GI50: 55.2 µM (inactive)
KM12
  GI50: > 100 µM (inactive)
LOX IMVI
  GI50: > 100 µM (inactive)
M14
  GI50: 86.5 µM (inactive)
OVCAR-3
  GI50: 33 µM (inactive)
OVCAR-8
  GI50: > 100 µM (inactive)
SF-268
  GI50: > 100 µM (inactive)
SF-295
  GI50: > 100 µM (inactive)
SF-539
  GI50: > 100 µM (inactive)
SK-MEL-2
  GI50: > 100 µM (inactive)
UACC-257
  GI50: 55.5 µM (inactive)
